Test results from patent publication US8247170B2, “Detection of penicillin tolerance in Group B Streptococcus: single nucleotide polymorphisms in penicillin binding protein 4” (priority 2008, dated 2012).

System: GBS clinical isolates and laboratory strains
Assay: Macrobroth penicillin tolerance assay
Format: cell-based, Group B Streptococcus
Conditions: for 10xMIC, regrowth O.D.600: Penicillin G 10×MIC90 48 h; for 10xMIC, regrowth O.D.600 / 30xMIC, regrowth O.D.600 / 100xMIC, regrowth O.D.600 / 300xMIC, regrowth O.D.600: then 24 h drug-free; for 30xMIC, regrowth O.D.600: Penicillin G 30×MIC90 48 h; for 100xMIC, regrowth O.D.600: Penicillin G 100×MIC90 48 h; for 300xMIC, regrowth O.D.600: Penicillin G 300×MIC90 48 h
Method: Using this modified penicillin tolerance assay, tolerant strains from the GBS clinical isolates can be more efficiently identified. In this macrobroth culture format, 25 ml THB broth GBS cultures (containing clinical isolates) were grown to an early exponential growth phase (˜0.2 OD600). Cell cultures (6 ml) were collected and divided into 4 culture tubes. […] Cell cultures were shaken at 150 rpm in order to maintain cells in suspension for proper growth. Subcultures (1/20 dilution) of cells were put into fresh THB containing […] Penase (i.e., 100 μl of Penase 10,000 U stock into 4 ml THB culture). Subcultures were allowed to grow for 24 hours at 37° C. Cell growth was monitored by OD (see Example 2).
(I) Bacterial Strains and Culture Conditions. GBS strains A909 (serotype IA), 515 (serotype IA), NEM316 (serotype III), COHI (serotype III), 2603V/R (serotype V) and O90R (non-typable) were used in this study. E. coli Top10 cells were used for the recombination experiments. GBS was cultured in Todd Hewitt broth (THB) or Tryptic Soy 5% sheep blood (TS) media and E. coli in Luria-broth (LB) medium or agar. Antibiotics were used at the following concentrations: for GBS—penicillin G (MIC90 0.06 μg ml^−1), ampicillin (MIC90 0.12 μg ml^−1), vancomycin (MIC90 2 μg ml^−1), cefazolin (MIC90 1 μg ml^−1) and chloramphenicol (5 μg ml^−1); for E. coli—ampicillin (50 μg ml^−1) and chloramphenicol (5 μg ml^−1). Both GBS and E. coli cultures were grown at 37° C. (II) Tolerance Using the MBC:MIC Ratio Method. Three GBS laboratory strains (i.e., A909, NEM316, and O90R) were cultured overnight for 18 h at 37° C. in THB. Subcultures in THB were subsequently grown to exponential phase (OD600˜0.3; i.e. 5×10^5 cfu/ml) at 37° C. Cell cultures were then exposed to different concentrations of antibiotics (Penicillin G, Ampicillin, Cefozolin or Vancomycin). […] Cell cultures were dispersed every 18 h before OD600 was measured to determine the lowest concentration of antibiotic with 90% growth inhibition (MIC90). Antibiotic treated cells (8 μl) from each well were re-suspended into PBS (100 μl) and plated (54 μl) on TS agar plates and allowed to grow for an additional 24 h at 37° C. Cell count was performed to determine the lowest concentration of antibiotic with 90% killing of original inoculums (MBC90). (III) Penicillin Killing and Regrowth Tolerance Assay by Microbroth Dilution. Three GBS laboratory strains (i.e., A909, NEM316, and O90R) were cultured overnight for 18 h at 37° C. in THB. Subcultures in THB were subsequently grown to exponential phase (OD600˜0.3) at 37° C. Cell cultures were then exposed to different concentrations of Penicillin G (Sigma, St. Louis, Mo.). […] Cell cultures were dispersed. A 1:20 dilution of cells was re-plated into new wells containing fresh THB with 500 U Penase (to degrade residual penicillin). Cell cultures were allowed to re-grow for an additional 24 h at 37° C. before the OD600 was measured. (IV) Measuring Cell Viability by Determining ATP Concentration. GBS strains were cultured for 18 h at 37° C. in THB. These cells were inoculated into fresh THB and subsequently allowed to grow to exponential phase (OD600 0.25-0.3) at 37° C. One ml of each culture was centrifuged at 5,000×g for 4 min. The cell pellet was re-suspended in ATP-free water. Cellular ATP was extracted using trichloroacetic acid (TCA) (5%) for 2 min and subsequently neutralized with Tris-EDTA-0.1M NaOAc, pH 7.75 to 10×TCA volume. The initial (in.) cellular ATP concentration ([ATP]) was measured using the ENLITEN (Promega) luciferase based reaction kit. THB cultures were then treated with 100×MIC90 Penicillin G for 22 h. The experimental (exp.) cellular ATP was extracted and the concentration was measured as stated above. Based on the calculations ([ATP] exp.)/([ATP] in./O.D. in.), differences in viability were equated with the change in [ATP]. (V) Measuring Penicillin Induced Lysis. Three GBS laboratory strains (A909, NEM316, and O90R) were cultured for 18 h at 37° C. in THB. […]

[1] = GBS laboratory strain 2603V/R (V)
[2] = GBS laboratory strain A909 (Ia)
[3] = GBS laboratory strain COH1 (III)
[4] = GBS laboratory strain NEM316 (III)
[5] = GBS laboratory strain O90R (NT)

## CC1(C)S[C@@H]2[C@H](NC(=O)Cc3ccccc3)C(=O)N2[C@H]1C(=O)O [Penicillin G]
51 clinical isolates
  % of clinical isolates PE-PT: 23.5%
  % of clinical isolates PT (penicillin tolerant): 15.7%
  % of clinical isolates S (penicillin susceptible): 60.8%
GBS laboratory strain 515 (Ia)
  Phenotype: Penicillin Tolerance (PT)
  10xMIC, regrowth O.D.600: ++ (“++” indicates an O.D.600 of 0.251 to 0.750)
  30xMIC, regrowth O.D.600: +++ (“+++” indicates an O.D.600 of 0.751 to 1.500)
  100xMIC, regrowth O.D.600: ++ (“++” indicates an O.D.600 of 0.251 to 0.750)
  300xMIC, regrowth O.D.600: ++ (“++” indicates an O.D.600 of 0.251 to 0.750)
[1]
  Phenotype: Susceptible (S)
  10xMIC, regrowth O.D.600: −− (“−−” indicates an O.D.600 of 0.001 to 0.099)
  30xMIC, regrowth O.D.600: −− (“−−” indicates an O.D.600 of 0.001 to 0.099)
  100xMIC, regrowth O.D.600: −− (“−−” indicates an O.D.600 of 0.001 to 0.099)
  300xMIC, regrowth O.D.600: −− (“−−” indicates an O.D.600 of 0.001 to 0.099)
[2]
  Phenotype: Susceptible (S)
  10xMIC, regrowth O.D.600: −− (“−−” indicates an O.D.600 of 0.001 to 0.099)
  30xMIC, regrowth O.D.600: −− (“−−” indicates an O.D.600 of 0.001 to 0.099)
  100xMIC, regrowth O.D.600: −− (“−−” indicates an O.D.600 of 0.001 to 0.099)
  300xMIC, regrowth O.D.600: −− (“−−” indicates an O.D.600 of 0.001 to 0.099)
[3]
  Phenotype: Paradoxical Effect-Penicillin Tolerance
  10xMIC, regrowth O.D.600: −− (“−−” indicates an O.D.600 of 0.001 to 0.099)
  30xMIC, regrowth O.D.600: +++ (“+++” indicates an O.D.600 of 0.751 to 1.500)
  100xMIC, regrowth O.D.600: +++ (“+++” indicates an O.D.600 of 0.751 to 1.500)
  300xMIC, regrowth O.D.600: ++ (“++” indicates an O.D.600 of 0.251 to 0.750)
[4]
  Phenotype: Paradoxical Effect-Penicillin Tolerance
  10xMIC, regrowth O.D.600: +++ (“+++” indicates an O.D.600 of 0.751 to 1.500)
  30xMIC, regrowth O.D.600: −− (“−−” indicates an O.D.600 of 0.001 to 0.099)
  100xMIC, regrowth O.D.600: ++ (“++” indicates an O.D.600 of 0.251 to 0.750)
  300xMIC, regrowth O.D.600: +++ (“+++” indicates an O.D.600 of 0.751 to 1.500)
[5]
  Phenotype: Penicillin Tolerance (PT)
  10xMIC, regrowth O.D.600: +++ (“+++” indicates an O.D.600 of 0.751 to 1.500)
  30xMIC, regrowth O.D.600: +++ (“+++” indicates an O.D.600 of 0.751 to 1.500)
  100xMIC, regrowth O.D.600: +++ (“+++” indicates an O.D.600 of 0.751 to 1.500)
  300xMIC, regrowth O.D.600: +++ (“+++” indicates an O.D.600 of 0.751 to 1.500)
GBS strain 12 (III)
  10xMIC, regrowth O.D.600: −− (“−−” indicates an O.D.600 of 0.001 to 0.099)
  30xMIC, regrowth O.D.600: −− (“−−” indicates an O.D.600 of 0.001 to 0.099)
  100xMIC, regrowth O.D.600: −− (“−−” indicates an O.D.600 of 0.001 to 0.099)
  300xMIC, regrowth O.D.600: −− (“−−” indicates an O.D.600 of 0.001 to 0.099)
GBS strain 18 (NT)
  10xMIC, regrowth O.D.600: −− (“−−” indicates an O.D.600 of 0.001 to 0.099)
  30xMIC, regrowth O.D.600: −− (“−−” indicates an O.D.600 of 0.001 to 0.099)
  100xMIC, regrowth O.D.600: −− (“−−” indicates an O.D.600 of 0.001 to 0.099)
  300xMIC, regrowth O.D.600: −− (“−−” indicates an O.D.600 of 0.001 to 0.099)
GBS strain 21 (NT)
  10xMIC, regrowth O.D.600: −− (“−−” indicates an O.D.600 of 0.001 to 0.099)
  30xMIC, regrowth O.D.600: −− (“−−” indicates an O.D.600 of 0.001 to 0.099)
  100xMIC, regrowth O.D.600: −− (“−−” indicates an O.D.600 of 0.001 to 0.099)
  300xMIC, regrowth O.D.600: −− (“−−” indicates an O.D.600 of 0.001 to 0.099)
GBS strain 22 (V)
  10xMIC, regrowth O.D.600: ++ (“++” indicates an O.D.600 of 0.251 to 0.750)
  30xMIC, regrowth O.D.600: ++ (“++” indicates an O.D.600 of 0.251 to 0.750)
  100xMIC, regrowth O.D.600: ++ (“++” indicates an O.D.600 of 0.251 to 0.750)
  300xMIC, regrowth O.D.600: ++ (“++” indicates an O.D.600 of 0.251 to 0.750)
GBS strain 26 (NT)
  10xMIC, regrowth O.D.600: −− (“−−” indicates an O.D.600 of 0.001 to 0.099)
  30xMIC, regrowth O.D.600: −− (“−−” indicates an O.D.600 of 0.001 to 0.099)
  100xMIC, regrowth O.D.600: −− (“−−” indicates an O.D.600 of 0.001 to 0.099)
  300xMIC, regrowth O.D.600: −− (“−−” indicates an O.D.600 of 0.001 to 0.099)
GBS strain 46 (Ib)
  10xMIC, regrowth O.D.600: −− (“−−” indicates an O.D.600 of 0.001 to 0.099)
  30xMIC, regrowth O.D.600: −− (“−−” indicates an O.D.600 of 0.001 to 0.099)
  100xMIC, regrowth O.D.600: −− (“−−” indicates an O.D.600 of 0.001 to 0.099)
  300xMIC, regrowth O.D.600: −− (“−−” indicates an O.D.600 of 0.001 to 0.099)
GBS strain 47 (III)
  10xMIC, regrowth O.D.600: −− (“−−” indicates an O.D.600 of 0.001 to 0.099)
  30xMIC, regrowth O.D.600: −− (“−−” indicates an O.D.600 of 0.001 to 0.099)
